Compound | melting point
CN(C)C1(C#N)CCOCC1 | 51 to 52 °C
CC(C)(C)c1cc(O)c(O)c(O)c1 | 135 °C
Cc1ccc(C(c2ccc(Br)cc2)c2ccc(C)o2)o1 | 64 °C
NC(=O)CS(=O)C(c1ccccc1)c1ccccc1 (stereo not given) | 164 °C
Cc1cc(Cl)cc(Cl)c1CN | 54 °C
CN(CC(=O)O)C(=N)N | 255 °C
NC(=O)Cc1ccccc1 | 157 °C
Nc1ccc(Cc2ccc(N)c(Cl)c2)cc1Cl | 110 °C
Cc1c([N+](=O)[O-])cc(C(=O)O)cc1[N+](=O)[O-] | 155 to 159 °C
CCCCCC#CCO | -18 °C
O=[N+]([O-])c1ccc(-c2nn3c(C(F)(F)F)nnc3s2)cc1 | 213 °C
OC1CC(O)C(O)C(O)C1O (stereo not given) | 236 °C
Nc1c(C(=O)O)sc2nccnc12 | 250 °C
CN1C(=O)CN=C(c2ccccc2F)c2cc([N+](=O)[O-])ccc21 | 166 °C
CCCCCCCCCOc1ccc(N)cc1 | 39 °C
Cc1nc2nn(C)cc2c(=O)n1N | 147 to 148 °C
Clc1ccc(OCOc2ccc(Cl)cc2)cc1 | 70.5 °C
O=CCCl | -16.3 °C
CC1CCCC(C)C1O (stereo not given) | 32.5 °C
CCOC(=O)CC(=O)c1cc(F)c(Cl)nc1Cl | 68 to 72 °C
Cc1cc(C)c(O)c(C(=O)CC2CC(=O)NC(=O)C2)c1 | 201 °C
O=C(CCl)c1ccc(Cl)cc1Cl | 54 °C
CCCCC(CC)COC(C)=O (stereo not given) | -45 °C
CCCCN(CCCC)CCCC | -70 °C
CSc1nnc(N)s1 | 176 to 180 °C
CCOc1ccc(-c2ccc(OCC)cc2)cc1 | 174 °C
N#CCN | 101 °C
O=C(NC(=O)c1c(F)cccc1F)Nc1ccc(OC(F)(F)C(F)OC(F)(F)F)c(Cl)c1 (stereo not given) | 178 °C

Compound | melting point
CNC(N)=S | 120 °C
O=C(O)CCCCCCCCCCCCCCCCCCCCC(=O)O | 125 to 127 °C
CC(C)(C)c1cc(C(C)(C)C)n(-c2ccc(N)cc2)n1 | 205 to 207 °C
O=C(O)C=Cc1cc(F)cc(F)c1 | 205 °C
CN(C)c1nc(N(C)C)nc(N(C)C)n1 | 173 °C
C=CC(C)(O)CCC=C(C)C (stereo not given) | < 25 °C
FC(F)(F)C(F)(F)C(F)(F)C(F)(F)OC(F)(F)C(F)(F)C(F)(F)C(F)(F)F | -100 °C
O=C(O)CCc1cc(Br)c(O)c(Br)c1 | 108 to 110 °C
C=CC(=O)OCCCCO | -112 °C
CC12CC3CC(C)(C1)CC(C(=O)O)(C3)C2 | 101 °C
CC12CCC3c4ccc(OC(=O)N(CCCl)CCCl)cc4CCC3C1CCC2O (stereo not given) | 104 °C
COC(=O)c1cnccn1 | 58 °C
O=C(O)CC[C@H]1CC[C@H](CCC(=O)O)C1=O | 121 °C
Fc1nc(F)nc(F)n1 | -38 °C
CCOC(=O)c1cnc2cc(-c3cccs3)nn2c1C | 151 to 153 °C
CC(C)(C)c1cc(N=Nc2cc(C(C)(C)C)cc(C(C)(C)C)c2O)c(O)c(C(C)(C)C)c1 | 246 to 247 °C
CNC(=O)C(C)SCCSP(=O)(OC)OC (stereo not given) | 43 °C
COc1cc([N+](=O)[O-])c(OC)cc1Cl | 144 to 145 °C
CC(C)CC(C)Br (stereo not given) | -94 °C
CC(=O)OC1C(O)C2=C(C(=O)C(OC(C)=O)C3(CC3C)C2=O)C2(C)CCC(=O)C(C)(C)C12 (stereo not given) | 201 °C
c1ccc(Nc2ccc3ccccc3c2)cc1 | 108 °C
CC(O)CC(C)O (stereo not given) | 50 to 52 °C
Cc1ccc(S(=O)(=O)NCCCN(CCCN(CCCNS(=O)(=O)c2ccc(C)cc2)S(=O)(=O)c2ccc(C)cc2)S(=O)(=O)c2ccc(C)cc2)cc1 | 126 °C
C=CCCCCCCCCCCC | -13 °C
Cc1cc(-c2cc(C)n(C)n2)n[nH]1 | 154 to 156 °C
OCC(I)CC(F)(F)C(F)(F)C(F)(F)C(F)(F)C(F)(F)C(F)(F)C(F)(F)C(F)(F)F (stereo not given) | 54 to 55 °C
CCOC(=O)C1=C(C)NC(C)=C(C(=O)OCC)C1c1ccco1 | 164 °C

The remaining lines, values ahead:

melting point | Compound
148 °C | N#CC(=Cc1cccs1)c1nc2ccccc2s1
146 to 149 °C | SC1=NC2(CCCCC2)NN1c1ccccc1
62.5 °C | C=C1CCC2OC2(C)CCC2C1CC2(C)C (single isomer, unassigned; (-))
53.3 °C | CC(=O)OC(OC(C)=O)c1ccco1
286 to 291 °C | CC(C)(C)OC(=O)N1Cc2[nH]c3ccccc3c2C[C@H]1C(=O)O
178 °C | Cc1ccccc1/N=N/c1c(C)[nH]c(=S)c(C#N)c1C
42.5 °C | C=CCN(CC=C)C(=O)COC(=O)c1ccccc1
300 to 305 °C | COC(=O)Nc1nc2ccc(C(=O)c3cccs3)cc2[nH]1
43 °C | O=Cc1ccc(N2CCCCC2)nc1
42 °C | N#CCc1c(F)cccc1Cl
66 °C | C#Cc1ccc(Br)cc1
38 to 40 °C | CC(O)c1ccccc1C(F)(F)F (stereo not given)
222 °C | Cc1c(C(=O)c2c[nH]n(C)c2=O)ccc(S(C)(=O)=O)c1C1=NOCC1
165 °C | O=C(OCCOc1cc(OCCOC(=O)c2ccccc2)c([N+](=O)[O-])cc1[N+](=O)[O-])c1ccccc1
158 °C | COc1cc(O)ccc1C=O
78 °C | CC(=O)c1cnc2ccccc2n1
-20 °C | OCCC1CCCCC1
190 °C | NS(=O)(=O)c1ccccc1Cl
63 °C | N#CCc1cccc([N+](=O)[O-])c1
69 °C | CC(=O)Oc1ccc2ccccc2c1
100 to 103 °C | OC1OC(c2ccccc2)Cc2ccccc21 (stereo not given)
133 °C | ON=Cc1c(F)cccc1Cl
205 °C | CC(CNC(=O)c1ccccc1)C(=O)OCC(=O)C12OC(C)(C)OC1CC1C3CCC4=CC(=O)C=CC4(C)C3(F)C(O)CC12C (stereo not given)
21 to 23 °C | O=C1CCCCCC1c1ccccc1 (stereo not given)

melting point | Compound
41 to 42 °C | Nc1ccccc1OCCN1CCOCC1
76 to 78 °C | Cc1ccc(C(Br)C(=O)c2ccc(Cl)cc2)cc1 (stereo not given)
147 to 150 °C | CC(=O)C1C(=O)c2cccc([N+](=O)[O-])c2C1=O (stereo not given)
100 to 101 °C | CC1CC(=Cc2ccccc2)C(=O)C(=Cc2ccccc2)C1 (stereo not given)
191 °C | COc1ccc(-c2cc(=O)c3c(O)c(OC)c(OC)cc3o2)cc1O
214 to 215 °C | O=C1OC(c2ccccc2)=NC1=Cc1ccc([N+](=O)[O-])cc1
163 °C | COc1cc(/C=C\C(=O)NCCc2ccc(OCc3ccccc3)c(OC)c2)ccc1OCc1ccccc1
84 to 85.5 °C | CC1c2ccccc2C(=O)C1c1ccccc1 (stereo not given)
139 °C | Nc1ccc(O)cc1F
146 °C | CC(C)C(C)C=CC(C)C1CCC2C3=CC=C4CC(O)CCC4(C)C3=CCC21C (stereo not given)
99 °C | c1cc2c3c(cccc3c1)CNC2
100 to 101 °C | CCOC(=O)c1c(NC(=O)CN2CCCCC2)sc2c1CCCC2
246 °C | c1ccc(Cc2c3ccccc3c(Cc3ccccc3)c3ccccc23)cc1
106 °C | CCOC(=O)C(Cc1c[nH]c2ccccc12)NC(C)=O (stereo not given)
293 °C | CN[C@@H](Cc1ccc(O)cc1)C(=O)O
249 to 251 °C | CCOC(=O)C12C(c3ccccc3OP1(=O)OCC)C1(C(=O)OCC)C2c2ccccc2OP1(=O)OCC (stereo not given)
120 °C | O=C(CC(=O)c1ccccc1O)c1ccccc1
110 °C | O=C(O)Cc1csc2ccccc12
92 °C | CC1CCC(C)(C(=O)NNc2ccccc2)C1(C)C (stereo not given)
31 °C | CC(=O)OC1Cc2ccccc21 (stereo not given)
155 °C | Nc1ccccc1S(N)(=O)=O
142 °C | O=C(Nc1ccc(Cl)cc1)c1cc(Cl)cc(Cl)c1O
218 °C | N#CC1=C(N)Oc2c(c(C(F)(F)F)nn2-c2ccccc2)C1c1ccc(O)cc1 (stereo not given)
-43 °C | Fc1ccccc1Cl

melting point | Compound
134 °C | CC1(C)OC2(C)CCC1C(=O)OC2(c1ccccc1)c1ccccc1 (stereo not given)
197 to 200 °C | O=C(O)C12CC3CC(C1)CC(c1ccc([N+](=O)[O-])cc1)(C3)C2
158 °C | CC1(C)OC(=O)C2(Cc3ccccc3C2)C(=O)O1
208 °C | CN1CCc2cc3c(cc2C(=O)Cc2ccc4c(c2C1)OCO4)OCO3
166 °C | O=[N+]([O-])c1ccc(O)c2ccccc12
238 °C | Cc1cc(C(F)(F)F)n2nc(N)c(/N=N/c3ccccc3Cl)c2n1
173 °C | CCOc1ccc(NC(N)=O)cc1
160 °C | COc1ccc(Br)c(C(N)=O)c1
198 °C | Cc1ccc(C)c(C(=O)N(NC(=O)c2ccccc2)C(C)(C)C)c1
175 °C | N#C/C(=N/Nc1ccccc1)c1nc(-c2ccccc2)cs1
161 °C | Clc1ncccc1-c1ccc(Br)nc1
85 to 88 °C | O=[N+]([O-])c1ccc2c(c1)OCCOCCOCCOCCOCCO2
192 °C | Nc1ccc(Nc2ccccc2)c2c1C(=O)c1ccccc1C2=O
75 to 77 °C | CCOC(=O)CC(=O)c1cccc([N+](=O)[O-])c1
93 to 97 °C | O=C(Cl)c1ccc(N=Nc2ccccc2)cc1
73 °C | Cc1cc(N)c2ncccc2c1
207 °C | N#CC1=C(N)Oc2c(c(C(F)(F)F)nn2-c2ccccc2)C1c1c(Cl)cc(Cl)cc1Cl (stereo not given)
98 to 99 °C | COc1ccccc1-c1ccc(C=CC(=O)c2ccccc2)o1
95 °C | Brc1ccc2ccc3cccc4ccc1c2c34
160 °C | CN(C)CCCOc1nn(Cc2ccccc2)c2ccccc12
70 to 77 °C | NC(CCO)c1ccccc1 (stereo not given)
97 °C | N#Cc1ccc(OCc2ccccc2)cc1

From a melting point compilation (Tetko et al.)
